For orientation: IC50 means the midpoint of a concentration-inhibition curve.

Here are results for 28 molecules from US20230102554A1 (GB002, INC., priority 2019, published 2023).

Assay [1] concerns the target T1, Human PDGFRα, cytoplasmic domain (GST-PDGFRα) (Homo sapiens, UniProt P16234).
T1 construct: made in house
The assay is described as follows: Human PDGFRα biochemical inhibition assay (off-chip Mobility Shift Assay).

In assay [2] the target is T2, Human PDGFRβ, cytoplasmic domain (GST-PDGFRβ) (Homo sapiens, UniProt P09619).
T2 construct: made in house
As to the kind of experiment: Human PDGFRβ biochemical inhibition assay (off-chip Mobility Shift Assay). Summed up:
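GST-tagged cytoplasmic domain (aa 557-1106) from baculovirus was incubated 1 h at room temperature with compound, CSKtide, ATP at Km and Mg²⁺ in HEPES buffer, pH 7.5. Phosphorylated and unphosphorylated peptide were separated by off-chip mobility shift, and the product ratio P/(P+S) gave percent inhibition.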

Structures are written as SMILES.

T1 sequence (P16234 550-1089 T674I): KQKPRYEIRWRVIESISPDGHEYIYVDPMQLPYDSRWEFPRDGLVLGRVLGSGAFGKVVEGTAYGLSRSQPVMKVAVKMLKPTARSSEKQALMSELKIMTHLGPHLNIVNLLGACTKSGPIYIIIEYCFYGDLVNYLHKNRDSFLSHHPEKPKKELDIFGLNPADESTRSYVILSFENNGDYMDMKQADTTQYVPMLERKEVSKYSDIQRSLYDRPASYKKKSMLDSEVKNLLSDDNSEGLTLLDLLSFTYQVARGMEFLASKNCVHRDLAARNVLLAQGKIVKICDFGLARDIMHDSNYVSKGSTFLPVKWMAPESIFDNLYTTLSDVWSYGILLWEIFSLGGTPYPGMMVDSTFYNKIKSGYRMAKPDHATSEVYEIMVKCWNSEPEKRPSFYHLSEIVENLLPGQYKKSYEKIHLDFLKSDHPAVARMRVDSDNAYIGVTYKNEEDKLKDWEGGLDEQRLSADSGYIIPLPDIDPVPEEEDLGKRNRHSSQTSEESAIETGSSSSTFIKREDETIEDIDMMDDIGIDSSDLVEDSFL
T2 sequence (P09619 with tags, fused parts or gaps): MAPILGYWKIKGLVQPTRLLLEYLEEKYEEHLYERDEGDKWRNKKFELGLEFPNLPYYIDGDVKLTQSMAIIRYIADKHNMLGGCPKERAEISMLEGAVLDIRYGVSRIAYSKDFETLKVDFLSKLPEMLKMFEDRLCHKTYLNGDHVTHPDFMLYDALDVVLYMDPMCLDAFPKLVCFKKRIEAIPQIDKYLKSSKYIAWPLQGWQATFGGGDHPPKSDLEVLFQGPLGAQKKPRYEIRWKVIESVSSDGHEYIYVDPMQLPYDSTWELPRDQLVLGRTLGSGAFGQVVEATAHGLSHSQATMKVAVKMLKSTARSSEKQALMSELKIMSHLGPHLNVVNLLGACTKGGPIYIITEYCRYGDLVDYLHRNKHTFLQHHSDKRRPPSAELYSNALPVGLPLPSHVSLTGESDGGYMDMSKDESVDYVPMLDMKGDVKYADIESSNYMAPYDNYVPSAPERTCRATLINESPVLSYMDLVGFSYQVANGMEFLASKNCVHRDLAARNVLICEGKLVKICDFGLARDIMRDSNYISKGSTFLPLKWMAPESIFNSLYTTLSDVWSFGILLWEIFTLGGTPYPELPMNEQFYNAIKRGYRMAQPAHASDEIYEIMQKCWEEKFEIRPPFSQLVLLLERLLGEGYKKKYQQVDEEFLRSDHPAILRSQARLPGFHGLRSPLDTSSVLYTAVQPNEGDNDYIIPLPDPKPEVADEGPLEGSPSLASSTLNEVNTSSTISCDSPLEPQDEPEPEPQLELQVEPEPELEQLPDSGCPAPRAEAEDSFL

For `COc1ccc2cc(N[C@@H](C)c3cccc(NC(=O)c4cncc(C)c4)c3)cnc2c1` [Compound 28, (S)-N-(3-(1-((7-methoxyquinolin-3-yl)amino)ethyl)phenyl)-5-methylnicotinamide], the IC50 in assay [1] and in assay [2] was under 300 nM throughout.

`COc1ccc(C(=O)Nc2cccc([C@H](C)Nc3cnc4cnn(C)c4n3)c2)cn1` [Compound 122, (S)-6-methoxy-N-(3-(1-((1-methyl-1H-pyrazolo[3,4-b]pyrazin-6-yl)amino)ethyl)phenyl)nicotinamide]: the IC50 is under 300 nM in assay [1] and 300 to 1000 nM in assay [2].

On to `Cc1cncc(C(=O)Nc2cccc([C@H](C)Nc3cnc4cc(C)oc4c3)c2)c1` [Compound 22, (S)-5-methyl-N-(3-(1-((2-methylfuro[3,2-b]pyridin-6-yl)amino)ethyl)phenyl)nicotinamide], for which the IC50 in assay [1] and in assay [2] was under 300 nM each time.

For `CCn1cc2ncc(N[C@@H](C)c3cccc(NC(=O)Nc4cnc(NC)c(C)c4)c3)nc2n1` [Compound 743, (S)-1-(3-(1-((2-ethyl-2H-pyrazolo[3,4-b]pyrazin-6-yl)amino)ethyl)phenyl)-3-(5-methyl-6-(methylamino)pyridin-3-yl)urea], the IC50 was under 300 nM in assay [1] and 300 to 1000 nM in assay [2].

With `CCn1cc2ncc(N[C@@H](C)c3cccc(NC(=O)c4cnc(N5CCN(C)CC5)c(C)c4)c3)nc2n1` [Compound 396, (S)-N-(3-(1-((2-ethyl-2H-pyrazolo[3,4-b]pyrazin-6-yl)amino)ethyl)phenyl)-5-methyl-6-(4-methylpiperazin-1-yl) nicotinamide], the IC50 in assay [1] and in assay [2] was under 300 nM in each case.

Regarding `Cc1cncc(C(=O)Nc2cccc([C@H](C)Nc3cnc4ccccc4c3)c2)c1` [Compound 2, (S)-5-methyl-N-(3-(1-(quinolin-3-ylamino)ethyl)phenyl)nicotinamide], the IC50 is under 300 nM in assay [1] and 300 to 1000 nM in assay [2].

As for `CCn1cc2ncc(N[C@@H](C)c3cccc(NC(=O)c4cnc(C)c(F)c4)c3)nc2n1` [Compound 419, (S)-N-(3-(1-((2-ethyl-2H-pyrazolo[3,4-b]pyrazin-6-yl)amino)ethyl)phenyl)-5-fluoro-6-methylnicotinamide], the results for the IC50 in assay [1] and in assay [2] were under 300 nM and 300 to 1000 nM, respectively.

On to `Cc1cncc(C(=O)Nc2cccc([C@H](C)Nc3cnc4cn(CC5CC5)nc4n3)c2)c1` [Compound 275, (S)-N-(3-(1-((2-(cyclopropylmethyl)-2H-pyrazolo[3,4-b]pyrazin-6-yl)amino)ethyl)phenyl)-5-methylnicotinamide], for which the IC50 in assay [1] and in assay [2] was under 300 nM in each case.

Regarding `Cc1cncc(C(=O)Nc2cccc([C@H](C)Nc3cnc4[nH]cc(-c5cnn(C)c5)c4n3)c2)c1` [Compound 563, (S)-5-methyl-N-(3-(1-((7-(1-methyl-H-pyrazol-4-yl)-5H-pyrrolo[2,3-b]pyrazin-2-yl)amino)ethyl)phenyl) nicotinamide], the IC50 in assay [1] and in assay [2] was under 300 nM each time.

In the case of `Cc1cncc(C(=O)Nc2cccc([C@H](C)Nc3cnc4cnn(CC(F)F)c4n3)c2)c1` [Compound 183, (S)-N-(3-(1-((1-(2,2-difluoroethyl)-1H-pyrazolo[3,4-b]pyrazin-6-yl)amino)ethyl)phenyl)-5-methylnicotinamide], the IC50 in assay [1] is under 300 nM; in assay [2] it was 300 to 1000 nM.

As to `CC(C)Cn1ccc(C(=O)Nc2cccc([C@H](C)Nc3cnc4cnn(C)c4n3)c2)n1` [Compound 157, (S)-1-isobutyl-N-(3-(1-((1-methyl-1H-pyrazolo[3,4-b]pyrazin-6-yl)amino)ethyl)phenyl)-1H-pyrazole-3-carboxamide], the IC50 in assay [1] and in assay [2] was under 300 nM throughout.

In the case of `Cc1n[nH]c2ncc(N[C@@H](C)c3cccc(NC(=O)c4cnn(C(F)F)c4)c3)nc12` [Compound 546, (S)-1-(difluoromethyl)-N-(3-(1-((3-methyl-1H-pyrazolo[3,4-b]pyrazin-5-yl)amino)ethyl)phenyl)-1H-pyrazole-4-carboxamide], the IC50 in assay [1] and in assay [2] was under 300 nM throughout.

Take `CCn1cc2ncc(N[C@@H](C)c3cccc(NC(=O)c4ccc(CN5CC(F)C5)c(C)c4)c3)nc2n1` [Compound 497, (S)-N-(3-(1-((2-ethyl-2H-pyrazolo[3,4-b]pyrazin-6-yl)amino)ethyl)phenyl)-4-((3-fluoroazetidin-1-yl)methyl)-3-methylbenzamide]: the IC50 in assay [1] and in assay [2] was under 300 nM each time.

Turning to `CCn1cc2ncc(N[C@@H](C)c3cc(NC(=O)Cc4ccc(C(C)(C)O)cn4)ccc3F)nc2n1` [Compound 703, (S)-N-(3-(1-((2-ethyl-2H-pyrazolo[3,4-b]pyrazin-6-yl)amino)ethyl)-4-fluorophenyl)-2-(5-(2-hydroxypropan-2-yl)pyridin-2-yl)acetamide], the IC50 in assay [1] and in assay [2] was at least 1000 nM each time.

For the molecule `C[C@H](Nc1cnc2cnn(C)c2n1)c1cccc(NC(=O)c2ccc(OC(F)(F)F)nc2)c1` [Compound 119, (S)-N-(3-(1-((1-methyl-1H-pyrazolo[3,4-b]pyrazin-6-yl)amino)ethyl)phenyl)-6-(trifluoromethoxy)nicotinamide], the IC50 in assay [1] and in assay [2] was under 300 nM each time.

With `CCNc1ncc(C(=O)Nc2ccc(C)c([C@H](C)Nc3cnc4cn(CC)nc4n3)c2)cc1C` [Compound 513, (S)-N-(3-(1-((2-ethyl-2H-pyrazolo[3,4-b]pyrazin-6-yl)amino)ethyl)-4-methylphenyl)-6-(ethylamino)-5-methylnicotinamide], the IC50 in assay [1] and in assay [2] was under 300 nM each time.

Turning to `CCn1cc2ncc(N[C@@H](C)c3cccc(NC(=O)c4ccc(OC)nc4)c3)nc2n1` [Compound 285, (S)-N-(3-(1-((2-ethyl-2H-pyrazolo[3,4-b]pyrazin-6-yl)amino)ethyl)phenyl)-6-methoxynicotinamide], the figures for the IC50 in assay [1] and in assay [2] were 300 to 1000 nM and at least 1000 nM, respectively.

Turning to `C[C@H](Nc1cnc2cnn(C)c2n1)c1cccc(NC(=O)c2ccc(Cl)c(F)c2)c1` [Compound 191, (S)-4-chloro-3-fluoro-N-(3-(1-((1-methyl-1H-pyrazolo[3,4-b]pyrazin-6-yl)amino)ethyl)phenyl)benzamide], the IC50 in assay [1] and in assay [2] was under 300 nM throughout.

As for `CCn1cc2ncc(N[C@@H](C)c3cccc(NC(=O)c4ccc(F)c(C)c4)c3)nc2n1` [Compound 330, (S)-N-(3-(1-((2-ethyl-2H-pyrazolo[3,4-b]pyrazin-6-yl)amino)ethyl)phenyl)-4-fluoro-3-methylbenzamide], the IC50 in assay [1] and in assay [2] was under 300 nM in each case.

Consider `Cc1n[nH]c2ncc(N[C@@H](C)c3cccc(NC(=O)c4cnn(CCF)c4)c3)nc12` [Compound 544, (S)-1-(2-fluoroethyl)-N-(3-(1-((3-methyl-1H-pyrazolo[3,4-b]pyrazin-5-yl)amino)ethyl)phenyl)-1H-pyrazole-4-carboxamide], for which the IC50 in assay [1] and in assay [2] was under 300 nM each time.

For `CCn1cc2ncc(N[C@@H](C)c3cc(NC(=O)Cc4ccc(C)c(N5CCN(C)CC5)c4)ccc3C)nc2n1` [Compound 680, (S)-N-(3-(1-((2-ethyl-2H-pyrazolo[3,4-b]pyrazin-6-yl)amino)ethyl)-4-methylphenyl)-2-(4-methyl-3-(4-methylpiperazin-1-yl)phenyl) acetamide], the IC50 in assay [1] and in assay [2] was under 300 nM in each case.

With `CCn1cc2ncc(N[C@@H](C)c3cccc(NC(=O)Cc4ccccc4F)c3)nc2n1` [Compound 451, (S)-N-(3-(1-((2-ethyl-2H-pyrazolo[3,4-b]pyrazin-6-yl)amino)ethyl)phenyl)-2-(2-fluorophenyl)acetamide], the IC50 was under 300 nM in assay [1] and 300 to 1000 nM in assay [2].

Turning to `C[C@H](Nc1cnc2cnn(C)c2n1)c1cccc(NC(=O)c2ccc3c(c2)CCC(=O)O3)c1` [Compound 72, (S)-N-(3-(1-((1-methyl-1H-pyrazolo[3,4-b]pyrazin-6-yl)amino)ethyl)phenyl)-2-oxochromane-6-carboxamide], the IC50 in assay [1] and in assay [2] was under 300 nM in each case.

On to `COCc1cncc(C(=O)Nc2cccc([C@H](C)Nc3cnc4cnn(C)c4n3)c2)c1` [Compound 112, (S)-5-(methoxymethyl)-N-(3-(1-((1-methyl-1H-pyrazolo[3,4-b]pyrazin-6-yl)amino)ethyl)phenyl)nicotinamide], for which the IC50 in assay [1] and in assay [2] was under 300 nM in each case.

On to `Cc1cncc(C(=O)Nc2cccc([C@H](C)Nc3cnc4c(c3)OCCN4)c2)c1` [Compound 45], for which the IC50 in assay [1] was 300 to 1000 nM; in assay [2], at least 1000 nM.

For the molecule `C[C@H](Nc1cnc2cnn(C)c2n1)c1cccc(NC(=O)c2cncc(C(F)(F)F)c2)c1` [Compound 102, (S)-N-(3-(1-((1-methyl-1H-pyrazolo[3,4-b]pyrazin-6-yl)amino)ethyl)phenyl)-5-(trifluoromethyl)nicotinamide], the IC50 in assay [1] and in assay [2] was under 300 nM throughout.

`CCn1cc2ncc(N[C@@H](C)c3cccc(NC(=O)c4ccc5c(c4)CCNC5)c3)nc2n1` [Compound 66, (S)-N-(3-(1-((2-ethyl-2H-pyrazolo[3,4-b]pyrazin-6-yl)amino)ethyl)phenyl)-1,2,3,4-tetrahydroisoquinoline-6-carboxamide]: the IC50 was under 300 nM in assay [1] and 300 to 1000 nM in assay [2].

For the molecule `C[C@H](Nc1cnc2[nH]cc(-c3cnn(C)c3)c2n1)c1cccc(NC(=O)c2cc(C(F)(F)F)nn2C)c1` [Compound 584, (S)-1-methyl-N-(3-(1-((7-(1-methyl-1H-pyrazol-4-yl)-5H-pyrrolo[2,3-b]pyrazin-2-yl)amino)ethyl)phenyl)-3-(trifluoromethyl)-1H-pyrazole-5-carboxamide], the IC50 in assay [1] and in assay [2] was 300 to 1000 nM in each case.
